Assay results taken from patent US8735623B2, “Process for preparing creatine amides” (priority 2009, dated 2014).
Like-named read-outs stand apart in the source and are kept apart here.

Tests used:
[1] = system: rat model of focal ischemia; conditions: 30 min ischemia, 48 hour reperfusion, male Wistar rat
Procedure: Research of the neuroprotective action of amides of creatine was carried out in a rat model of focal ischemia (male, Wistar, 12÷14 weeks, 220÷240 g). Anesthesia was performed by sodium thiopental 60 mg/kg. A solution of amides of creatine in saline was administered intravenous to the first group of animals 45 min before ischemia, saline was administered to a control group, a solution of amides of creatine in saline was administered intragastric per os by an enteral tube a day before ischemia to the second group of animals 3 times per day, saline was administered to a control group.
Standard time of ischemia constituted 30 min, standard time of reperfusion constituted 48 hour. The animals were sacrificed, brain slices with thickness of 2 mm were produced for assessing a brain damage volume. The damage area was determined by staining with […] followed by data acquisition and analysis of stained slice digital images. A brain damage coefficient, i.e. a relation of damage area to the slice surface was calculated (Table 1).

[2] = system: rat model of focal ischemia; conditions: score 18 max, 3 min
Procedure: Cerebral ischemia was induced by the method mentioned above. A solution of amides of creatine or saline was administered intravenous. […] Testing the animals was carried out before ischemia, on a second and third days after ischemia-reperfusion at a fixed time for exclusion of behavioral changes by means of circadian rhythm. Spontaneous activity, symmetrical limb movement, climbing onto vertical reticulated wall, body proprioreception, touching to vibriss were assessed. A maximum point by assigned score was 18 (lack of neurological deficit), minimum—3 (severe neurological deficit).

[3] = Stability in artificial gastric secretion (HPLC); conditions: 37° C.
Procedure: 10 mg of amides of creatine was dissolved in 20 mL of artificial gastric secretion for study of amides of creatine stability, solution aliquot was place into vial for chromatograph. Vial with solution was place into chromatograph autosampler at 37° C. Initial concentration of amides of creatine and its relative change in gastric secretion were determined by HPLC at indicated temperature (Table 3).

[4] = 37° C.
Procedure: Stability of amides of creatine in human plasma was assessed by relative change in concentration of amides of creatine in plasma. 1 mL of plasma was mixed with 0.2 mL of amides of creatine aqueous solution with concentration 5 mg/mL, a mixture was kept at a temperature of 37° C., aliquot of volume 0.2 mL was drawn in fixed time ranges, mixed with 0.02 mL of trifluoroacetic acid 10% solution, a precipitate was centrifuged at […] for 20 min. A concentration of amides of creatine in supernatant was determined by HPLC method (Table 4).

[5] = in vivo; cited from earlier work
[6] = 20-30 g per day for a few days; cited from earlier work
[7] = i./v., 150 mg/kg, 45 min before ischemia
[8] = per os, 3 × 150 mg/kg, a day before ischemia

Row | Structure (SMILES) | Stability in gastric secretion ([3]; 0 hour) [%] | Stability in gastric secretion ([3]; 1 hour) [%] | Stability in gastric secretion ([3]; 3 hours) [%] | Stability in gastric secretion ([3]; 5 hours) [%] | Stability in human plasma ([4]; 0 hour) [%] | Stability in human plasma ([4]; 0.25 hour) [%] | Stability in human plasma ([4]; 0.5 hours) [%] | Stability in human plasma ([4]; 1 hour) [%] | further results
1 | CC(=O)O.CC(C)OC(=O)CNC(=O)CN(C)C(=N)N [Agent 1, Creatinyl-Glycine iso-Propyl Ester Acetate] | 100 | 100 | 99 | 97 | 100 | 100 | 99 | 91 | Brain damage coefficient [1, 7]: 11.2 ± 2.3%; Brain damage coefficient [1, 8]: 14.2 ± 3.0%; Neurological condition by Garcia score, 2nd day after ischemia ([2]; 150 mg/kg intravenous): 10 ± 2; Neurological condition by Garcia score, 3rd day after ischemia ([2]; 150 mg/kg intravenous): 15 ± 2; Neurological condition by Garcia score, 1 day before ischemia ([2]; 150 mg/kg intravenous): 18 ± 0
2 | CC(=O)O.CCOC(=O)CNC(=O)CNC(=O)CN(C)C(=N)N [Agent 2, Creatinyl-Glycyl-Glycine Ethyl Ester Acetate] | 100 | 100 | 98 | 98 | 100 | 100 | 97 | 90 | Brain damage coefficient ([1]; i./v., 200 mg/kg, 45 min before ischemia): 12.1 ± 2.0%
3 | CCNC(=O)C(Cc1ccccc1)NC(=O)CN(C)C(=N)N.Cl (stereo not shown) [Agent 5, Creatinyl-Phenylalanine Ethylamide Hydrochloride] | 100 | 100 | 98 | 99 | 100 | 100 | 97 | 87 | Brain damage coefficient ([1]; i./v., 50 mg/kg, 45 min before ischemia): 14.0 ± 1.1%; Neurological condition by Garcia score, 2nd day after ischemia ([2]; 50 mg/kg intravenous): 11 ± 1; Neurological condition by Garcia score, 3rd day after ischemia ([2]; 50 mg/kg intravenous): 14 ± 1; Neurological condition by Garcia score, 1 day before ischemia ([2]; 50 mg/kg intravenous): 18 ± 0
4 | CC(=O)O.CC(=O)O.CCOC(=O)[C@@H](N)CCCCNC(=O)CN(C)C(=N)N [Agent 4, N^ε-Creatinyl-Lysine Ethyl Ester Diacetate] | 100 | 100 | 98 | 97 | 100 | 100 | 100 | 89 | Brain damage coefficient ([1]; i./v., 100 mg/kg, 45 min before ischemia): 13.3 ± 3.2%; Brain damage coefficient ([1]; per os, 3 × 100 mg/kg, a day before ischemia): 15.2 ± 2.9%; Neurological condition by Garcia score, 2nd day after ischemia ([2]; 100 mg/kg intravenous): 14 ± 1; Neurological condition by Garcia score, 3rd day after ischemia ([2]; 100 mg/kg intravenous): 17 ± 2; Neurological condition by Garcia score, 1 day before ischemia ([2]; 100 mg/kg intravenous): 18 ± 0
5 | CN(CC(=O)O)C(=N)N [creatine, Creatine] | – | – | – | – | – | – | – | – | Extent of absorbtion from gastro-intestinal tract [5]: 1 to 14%
6 | CC(=O)O.CCOC(=O)CCCNC(=O)CN(C)C(=N)N [Agent 6, Creatinyl-γ-Aminobutyric acid Ethyl Ester acetate] | 100 | 100 | 99 | 99 | – | – | – | – | Brain damage coefficient ([1]; i./v., 45 mg/kg, 45 min before ischemia): 13.1 ± 1.0%; Neurological condition by Garcia score, 2nd day after ischemia ([2]; 45 mg/kg intravenous): 14 ± 0; Neurological condition by Garcia score, 3rd day after ischemia ([2]; 45 mg/kg intravenous): 16.0 ± 1.1; Neurological condition by Garcia score, 1 day before ischemia ([2]; 45 mg/kg intravenous): 18 ± 0
7 | CN(CC(=O)O)C(=N)N.O [creatine monohydrate] | – | – | – | – | – | – | – | – | Increasing of total creatine content in human skeletal muscles [6]: more than 20%
8 | CCNC(=O)CNC(=O)CN(C)C(=N)N.O=C(O)C(O)C(O)C(=O)O [Agent 3, Creatinyl-Glycine Ethylamide Tartrate] | 100 | 100 | 97 | 98 | 100 | 100 | 95 | 90 | Brain damage coefficient [1, 7]: 12.0 ± 1.7%; Brain damage coefficient [1, 8]: 13.9 ± 3.3%; Neurological condition by Garcia score, 2nd day after ischemia ([2]; 150 mg/kg intravenous): 11 ± 2; Neurological condition by Garcia score, 3rd day after ischemia ([2]; 150 mg/kg intravenous): 16 ± 1; Neurological condition by Garcia score, 1 day before ischemia ([2]; 150 mg/kg intravenous): 18 ± 0
